Molecular target: T1, 17-beta-hydroxysteroid dehydrogenase 13 (Homo sapiens, UniProt Q7Z5P4)
T1 sequence (Q7Z5P4 whole entry): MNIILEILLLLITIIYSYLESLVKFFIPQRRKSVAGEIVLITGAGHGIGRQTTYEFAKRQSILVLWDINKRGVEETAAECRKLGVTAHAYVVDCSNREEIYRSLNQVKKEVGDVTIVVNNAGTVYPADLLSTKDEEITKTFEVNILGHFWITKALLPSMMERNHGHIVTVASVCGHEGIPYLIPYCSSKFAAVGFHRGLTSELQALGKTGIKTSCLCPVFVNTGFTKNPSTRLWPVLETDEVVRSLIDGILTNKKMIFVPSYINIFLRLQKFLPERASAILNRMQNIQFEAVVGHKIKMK
Assay: HSD17B13 rapid-fire mass spectrometry assay (RF/MS assay)
Text: Recombinant human HSD17B13 was expressed and purified from sf9 cells at Charles River Labs (Saffron Walden, UK). Leukotriene B4 (Catalog #71160-24-2) and 12-oxoleukotriene B4 (Catalog #20140) were purchased from Cayman Chemicals (Ann Arbor, Michigan.). NAD+ (Catalog #N8285), BSA (Catalog #A7030), DMSO (Catalog #D2650), and Tween-20 (Catalog #11332465001) were purchased from Sigma (St. Louis, MO). Formic acid (Catalog #28905) was from ThermoFisher Scientific and 384 deep well PP microplates (Catalog #784261) were from Greiner Bio-One. In a typical IC50 assay performed in a 384w PP microplate, test compounds (0-100 μM) were incubated with HSD17B13 (80 nM), LTB4 (10 μM), and NAD+ (0.5 mM) in 10 μL assay buffer (20 mM Tris (pH 7.5), BSA (0.005%), and Tween-20 (0.01%)) at RT for 3 h. The assays were quenched by adding 20 μL of 0.15% aqueous formic acid and the plates were frozen at −80° C. RF/MS analysis was performed at PureHoney Technologies (Billerica, MA) on a RapidFire RF300 system (Agilent Technologies, Inc.) coupled to an API 4000 triple quadrupole mass spectrometer (Sciex) equipped with Agilent RapidFire cartridge type A (C4). The mobile phase was 0.09% formic acid and 0.01% trifluoracetic acid in water (Buffer A) and 0.09% formic acid and 0.01% trifluoracetic acid in 80% aqueous acetonitrile (Buffer B). The RapidFire method conditions were the following: 250 ms aspirate, 3000 ms load/desalt, 4000 ms elute, and 500 ms re-equilibrate. RF-MS/MS was performed in negative polarity (−4500 V), the source temperature was 650° C., and gas 1 and gas 2 settings for nitrogen were set to 50. The curtain gas and collision gas were also nitrogen and were set to 20 and 12, respectively. Leukotriene B4 (335.3) and 12-oxoLeukotriene B4 (333.3) SRM transitions were optimized with Discovery Quant software and extracted ion counts for these analytes were determined. Data Analysis. HSD17B13 enzyme activity was measured as percent conversion of extracted ion counts and normalized to high and low controls to determine percent residual activity at various concentrations of test compounds. […]

Row | Compound | IC50
1 | COc1ccc(C#Cc2nc(S(=O)(=O)Nc3ccc(C(=O)O)cc3OC)cs2)c(C2CC2)c1 [US12384753, Example 396] | < 100 nM
2 | COc1cc(C(=O)O)ccc1NS(=O)(=O)c1coc(-c2ccc(F)cc2)n1 [US12384753, Example 417] | < 100 nM
3 | COc1cc(C(=O)O)ccc1NS(=O)(=O)c1coc(-c2ccc(Cl)cc2)n1 [US12384753, Example 418] | < 100 nM
